Measured values published in patent US12714684B2 (ALPARIS, S.A. DE C.V., priority 2019, dated 2026).
Converted amounts (≈) assume the structure as drawn.

How the values were obtained:
[1] = test system: carrageenan (CAR)-induced inflammation; assay: Carrageenan (CAR)-induced subplantar edema model, volume displacement by plethysmometer; format: in vivo, rats; settings: for Time from which an anti-inflammatory effect is shown, carrageenan model: oral 100 mg/kg; for Effect in the time course, carrageenan model: oral 100 and 320 mg/kg
Protocol: The carrageenan (CAR)-induced subplantar edema model was used in the evaluation of the acute effect.
(§1) Preclinical studies were performed in rats with a chronic inflammation model using complete Freund's adjuvant (CFA) given intra-articularly (AIA), as well as an acute model induced by carrageenan (CAR) given in the subplantar region.
(§2) In these models, the inflammation induced by the complete Freund's adjuvant and carrageenan is determined by the volume displacement measured with a plethysmometer.

[2] = Thermodynamic solubility study in water with 1% LSS; format: physicochemical
Protocol: It was performed by adding 2 g of the solid phase to LSS (sodium lauryl sulfate) medium, with stirring at 37.5° C., and taking aliquots at 3, 5, 10 and 30 minutes. Aliquots were filtered and measurements were made with UV-Vis spectroscopy at 420 nm.
We measured the solubility of the co-amorphous phases at a lower concentration of 0.05 g in 3.5 ml, for determining the effect of concentration on the aggregation phenomenon.

[3] = test system: CAR-induced thermal hyperalgesia; assay: Thermal hyperalgesia induced by carrageenan; format: in vivo, rats; settings: oral 100 mg/kg
[4] = test system: Complete Freund's Adjuvant (CFA)-induced inflammation; assay: Complete Freund's adjuvant (CFA)-induced inflammation model, volume displacement by plethysmometer; format: in vivo, Sprague-Dawley male rats
Protocol: as §1, §2

[5] = Merck Index 15th ed.; cited from earlier work
[6] = oral, 100 and 320 mg/kg, 1 h before

COc1cc(/C=C/C(=O)CC(=O)/C=C/c2ccc(O)c(OC)c2)ccc1O [curcumin, (1E,6E)-1,7-bis(4-hydroxy-3-methoxyphenyl)-1,6-heptadiene-3,5-dione]
Time from which an anti-inflammatory effect is shown, carrageenan model [1]: only in the last measurement
Effect with respect to the vehicle in the time course, carrageenan model ([1]; oral 320 mg/kg, at 1 and 2 hours): The same phenomenon is observed
Effect in the time course, carrageenan model ([1]; at 6 hours): seem to reverse the inflammatory effect induced by carrageenan
Reversal of the inflammatory effect induced by carrageenan (AUC) [1, 6]: unable to reverse the inflammatory effect
solubility at 30 min ([2]; water with 1% sodium lauryl sulfate (LSS), aqueous with cosolvent or surfactant or cyclodextrin, thermodynamic from solid, high concentration sample, 37.5° C., water with 1% LSS, 30 min): 110 µg/mL (≈ 299 µM)
Solubility of curcumin alone in water ([2]; water, could not be determined): almost insoluble in water
Antihyperalgesic effect, carrageenan-induced thermal hyperalgesia [3]: the three treatments produce an antihyperalgesic effect
Effect with respect to the vehicle in the time course, CFA model ([4]; oral 100 mg/kg, at 3 and 4 hours): shows an inflammatory effect with respect to the vehicle
Effect with respect to the vehicle in the time course, CFA model ([4]; oral 320 mg/kg, between 2 and 6 hours): shows an inflammatory effect with respect to the vehicle
Reversal of the inflammatory effect induced by complete Freund's adjuvant (AUC) [4, 6]: unable to reverse the inflammatory effect
Solubility in solvents [5]: soluble in ethanol and in concentrated acetic acid

N=C(N)NCCC[C@H](N)C(=O)O [L-arginine]
Time from which an anti-inflammatory effect is shown, carrageenan model [1]: only in the last measurement
Effect in the time course, carrageenan model ([1]; first two hours): inclined to show a proinflammatory effect
Antihyperalgesic effect, carrageenan-induced thermal hyperalgesia [3]: the three treatments produce an antihyperalgesic effect
Effect in relation to the vehicle in the time course, CFA model ([4]; oral 100 and 320 mg/kg, between 2 and 4 hours): showed an inflammatory effect in relation to the vehicle

O=C(O)Cc1ccccc1Nc1c(Cl)cccc1Cl [diclofenac]
Reversal of inflammation induced by carrageenan ([1]; oral, fixed dose 100 mg/kg): exhibited an anti-inflammatory effect
Reversal of inflammation induced by complete Freund's adjuvant ([4]; oral, fixed dose 100 mg/kg): exhibited an anti-inflammatory effect
